Experimental data: patent US20160272691A1, “COMPOSITIONS AND METHODS FOR TREATING CONDITIONS ASSOCIATED WITH y-[sequence]” (NDSU RESEARCH FOUNDATION, priority 2013, published 2016)
No end group written: not given here.

Legend:
[1] = biological target: T1, γHV68 M11 (Murid herpesvirus 4, UniProt P89884); experiment: biochemical; type: binding, murine γHV68; conditions: for ΔG, M11 / ΔH, M11 / ΔS, M11: ITC, 25° C., Table 1
T1 construct: γHV68 M11 residues 1-136 was expressed and purified; made in house
Description: (§1) Various Bcl-2 homologs lacking the C-terminal transmembrane helix were cloned and expressed to enable purification of soluble constructs identical to those used for previous structural studies. γHV68 M11 residues 1-136 was expressed and purified. The double mutant variant of Bcl-XL (N52D, N66D) was created by two rounds of site-directed mutagenesis using the QuikChange II Site-Directed Mutagenesis Kit (Agilent Technologies), then cloned, along with a C-terminal His6-tag for purification, into the NdeI and NotI restriction sites of pET 29b. The His6-tagged Bcl-XL (residues 1-208, N52D, N66D) were expressed in E. coli strain BL21(DE3)pLysS, and soluble protein in the cell lysate was purified to homogeneity by Immobilized Metal Affinity Chromatography using two 5 mL His-Select columns (GE Healthcare) linked in tandem, followed by Ion-Exchange Chromatography using a Mono Q HR 10/10 column (GE Healthcare) and Size-Exclusion Chromatography using a 16/60 preparative Superdex 75 column (GE Healthcare).
(§2) Various Beclin 1 BH3D-derived peptides, were chemically synthesized, and HPLC purified to >95% purity, with peptide purity confirmed by electrospray mass spectrometry (EZBioLabs/RSSynthesis/Protein Chemistry Technology Core at the University of Texas Southwestern Medical Center, Dallas).
(§3) Isothermal titration calorimetry was performed using a Nano ITC Low Volume (TA Instruments). For all ITC experiments, samples were loaded into separate dialysis cassettes, and dialyzed into ITC buffer. The ITC buffer for all experiments involving γHV68 M11 was 50 mM HEPES, pH 7.5, 250 mM NaCl and 2 mM β-mercaptoethanol and for human Bcl-XL was 25 mM HEPES, pH 7.5, 100 mM NaCl and 2 mM β-mercaptoethanol. ITC was performed at 25° C. with 25 injections of 2 μL each. Data were analyzed using NanoAnalyze Software (TA Instruments), with an independent model.

[2] = biological target: T2, human Bcl-XL (Homo sapiens, UniProt Q07817, N52D/N66D); experiment: Isothermal titration calorimetry, binding of Beclin 1 BH3D-derived peptides to Bcl-XL; conditions: ITC
T2 construct: The His6-tagged Bcl-XL (residues 1-208, N52D, N66D) were expressed in E. coli; His6 (C); made in house; host or cells: E. coli BL21(DE3)pLysS
T2 sequence (Q07817 1-208 N52D/N66D): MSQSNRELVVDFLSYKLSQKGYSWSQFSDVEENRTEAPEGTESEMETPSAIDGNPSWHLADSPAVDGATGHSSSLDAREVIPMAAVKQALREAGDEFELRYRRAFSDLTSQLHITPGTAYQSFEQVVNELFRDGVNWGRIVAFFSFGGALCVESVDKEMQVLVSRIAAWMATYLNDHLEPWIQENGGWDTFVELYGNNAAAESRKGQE
Description: as §1, §2, §3

[3] = biological target: T3, M11 (Murid herpesvirus 4, UniProt P89884); experiment: Autophagy assay (GFP-LC3 puncta), M11-mediated down-regulation of autophagy in MCF7 cells; type: cell-based, murine γHV68; conditions: cells that transiently express M11 in addition to Beclin 1; p=0.0010 treated versus untreated
T3 construct: expressed in transfected cells; host or cells: MCF7 human breast carcinoma cells
T3 sequence (P89884 whole entry, looked up): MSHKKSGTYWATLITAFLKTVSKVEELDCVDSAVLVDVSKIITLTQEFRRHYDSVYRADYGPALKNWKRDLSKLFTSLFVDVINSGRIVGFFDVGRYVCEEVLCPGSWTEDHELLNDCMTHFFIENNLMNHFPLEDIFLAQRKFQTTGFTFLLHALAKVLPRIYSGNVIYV
Experimental: (§4) Quantification of the fluorescent autophagosomes in MCF7 cells co-transfected with GFP-LC3 (1.6 μg), Beclin 1 (1.2 μg), and either Bcl-XL (1.2 μg) or M11(1.2 μg) expression plasmids (4 μg plasmids total) was done using an inverted AxioObserver (Zeiss). Cells were cultured in DMEM with 10% fetal calf serum (growth medium) in 8-well slides (Millipore) and transfected at 80% confluence with Lipofectamine (Invitrogen). After transfection, cells were either starved overnight in Earle's balanced salt solution (EBSS, starvation medium), or grown in nutrient-rich media with the addition of 2×EAA (essential amino acids) and 2×NEAA (nonessential amino acids) (nutrient rich medium) in the absence or presence of 1 mM peptides if indicated. The number of GFP-LC3 puncta per GFP-LC3 positive cell was assessed by counting a minimum of 50 cells via Image ProPlus for duplicate samples per condition in three independent experiments. The significance of alterations in autophagy levels were determined by a two-tailed, heteroscedastic student's t-test, wherein p≦0.05 is considered significant.
(§5) Lastly, whether the DM peptide would specifically prevent M11-mediated down-regulation, but not Bcl-XL-mediated down-regulation of Beclin 1-dependent autophagy in cells was investigated. […]

[4] = biological target: T4, Bcl-XL (Homo sapiens, UniProt Q07817); experiment: Autophagy assay (GFP-LC3 puncta), Bcl-XL-mediated down-regulation of autophagy in MCF7 cells; type: cell-based; conditions: cells that transiently express Bcl-XL in addition to Beclin 1; p=0.92294 treated versus untreated
T4 construct: expressed in transfected cells; host or cells: MCF7 human breast carcinoma cells
T4 sequence (Q07817 whole entry): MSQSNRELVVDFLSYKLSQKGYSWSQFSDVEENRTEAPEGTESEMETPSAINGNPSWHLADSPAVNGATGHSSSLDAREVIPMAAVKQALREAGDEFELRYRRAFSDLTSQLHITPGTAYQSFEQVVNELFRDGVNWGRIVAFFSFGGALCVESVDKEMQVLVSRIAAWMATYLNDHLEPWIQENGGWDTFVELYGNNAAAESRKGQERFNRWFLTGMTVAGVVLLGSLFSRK
Experimental: as §4, §5

[5] = system: MCF7 cells; experiment: Autophagy assay (GFP-LC3 puncta) in MCF7 cells without Bcl-XL or M11; type: cell-based, human
Experimental: as §4, §5

Substance | Kd [1] [nM] | ΔG, M11 [1] [kcal/mol] | ΔH, M11 [1] [kcal/mol] | ΔS, M11 [1] [J/K · mol] | fold better binding to M11 compared to the G120E peptide ([1]; relative to G120E peptide) [fold] | fold weaker binding to M11 compared to WT ([1]; relative to WT BH3D) [fold] | binding to Bcl-XL (in words) [2] | autophagy levels compared to untreated cells [3] | effect on autophagy compared to untreated cells [4] | levels of autophagy ([5]; MCF7 cells, nutrient-rich or starvation conditions, peptide treatment) | autophagy levels relative to untreated cells ([5]; cells that express Beclin 1, but not Bcl-XL or M11, p=0.03383 treated versus untreated) | TΔSapp for binding to M11, fold lower than for binding to Bcl-XL ([1]; M11 versus Bcl-XL) [fold] | ΔHapp for binding to M11, fold higher than for binding to Bcl-XL ([1]; M11 versus Bcl-XL) [fold] | ΔG, Bcl-XL ([2]; 25° C., Table 1) [kcal/mol] | ΔH, Bcl-XL ([2]; 25° C., Table 1) [kcal/mol] | ΔS, Bcl-XL ([2]; 25° C., Table 1) [J/K · mol] | Kd ([2]; 25° C., Table 1, cell "No" wraps to "Binding" in the next grid row (= No Binding)) [nM]
GSGTMENLSRRLKVTEALFDIMSGQT [G120E + D121A] | 6430 ± 150 | -7.079 ± 0.014 | -14.9 ± 0.65 | −109.81 ± 9.28 | ~5.7 | ~4.7 | does not bind |  |  |  |  |  |  |  |  |  | 
TAT-DM peptide: HIV-1 TAT protein transduction domain attached via a diglycine linker to the N-terminus of the DM peptide (YGRKKRRQRRRGGGSGTMENLSRRLKVTEALFDIMSGQT) |  |  |  |  |  |  |  | markedly increases autophagy levels | insignificant effect | did not increase levels of autophagy | only a slight elevation in autophagy levels |  |  |  |  |  | 
GSGTMENLSRRLKVTGDLFDIMSGQT [WT, reference compound] | 1380 ± 410 | -8.009 ± 0.17 | -16.96 ± 1.53 | −125.72 ± 22.53 |  |  |  |  |  |  |  | ~4 | ~2 | -7.787 ± 0.055 | -10.41 ± 0.344 | −36.89 ± 4.53 | 1950 ± 190
